Measurements: US6242468A, “Carbamate and urea compositions and neurotrophic uses” (priority 1998, dated 2001)

System: TH-positive dopaminergic neurons in the striatum
Test: MPTP Model of Parkinson's Disease; recovery of TH-positive dopaminergic neurons in the striatum
Assay type: in vivo, male CD1 white mice
Conditions: 4 mg/kg s.c.; MPTP 30 mg/kg i.p. for 5 days; compound along with MPTP and 5 further days; 18 days following MPTP
Description: MPTP lesioning of dopaminergic neurons in mice was used as an animal model of Parkinson's Disease. Four week old male CD1 white mice were dosed i.p. with 30 mg/kg of MPTP for 5 days. Test compounds (4 mg/kg), or vehicle, were administered s.c. along with the MPTP for 5 days, as well as for an additional 5 days following cessation of MPTP treatment. At 18 days following MPTP treatment, the animals were sacrificed and the striata were dissected and perfusion-fixed. Immunostaining was performed on saggital and coronal brain sections using anti-tyrosine hydroxylase […] to quantitate survival and recovery of dopaminergic neurons. In animals treated with MPTP and vehicle, a substantial loss of functional dopaminergic terminals was observed as compared to non-lesioned animals. […] Table III presents quantitation for the recovery of TH-positive dopaminergic neurons in the striatum of animals receiving compounds 1, 3, 4 and 5 in this model.

SMILES	% Recovery of TH Immunostaining [%]
CCC(C)CNC(=O)N1CCC[C@H]1C(=O)OCCCc1cccnc1 (stereo partly drawn) [Example 1, 3-(3-pyridyl)-1-propyl (2S)-1-[(2-methylbutyl)carbamoyl]pyrrolidine-2-carboxylate]	27.47
O=C(OCCCc1cccnc1)[C@@H]1CCCN1C(=S)NC1CCCCC1 [Example 3, 3-(3-pyridyl)-1-propyl (2S)-1-[(cyclohexyl)thiocarbamoyl]-pyrrolidine-2-carboxylate]	56.13
O=C(OCCCc1cccnc1)[C@@H]1CCCN1C(=O)NC1CCCCC1 [Example 4, 3-(3-pyridyl)-1-propyl (2S)-1-[(cyclohexyl)carbamoyl]-pyrrolidine-2-carboxylate]	59.79
O=C(OCCCc1cccnc1)[C@@H]1CCCN1C(=S)NC12CC3CC(CC(C3)C1)C2 [Example 5, 3-(3-pyridyl)-1-propyl (2S)-1-[(1-adamantyl)thiocarbamoyl]pyrrolidine-2-carboxylate]	52.32
